Experimental data as given in US7723523B2, “Tetrahydropyridothiophenes” (4SC AG, priority 2004, dated 2010).

Tests used:
[1] = tested on: RKO (RKOp27) human colon adenocarcinoma cells; assay: Alamar Blue cell viability assay, anti-proliferative/cytotoxic activity on proliferating RKOp27 cells; type: cell-based; conditions: absence of Ponasterone A, 72 hours incubation, read-out: IC50 RKO p27 proliferating
Description: The anti-proliferative/cytotoxic activity of the compounds described herein, can be tested on subclones of RKO (RKOp27) human colon adenocarcinoma cells (Schmidt et al., Oncogene 19, 2423-2429; 2000) using the Alamar Blue cell viability assay (described in O'Brien et al. Eur J Biochem 267, 5421-5426, 2000). The compounds are dissolved as 20 mM solutions in dimethylsulfoxide (DMSO) and subsequently diluted in semi-logarithmic steps. DMSO dilutions are further diluted 1:100 into Dulbecco's modified Eagle's medium (DMEM) containing 10% fetal calf serum to a final concentration twice as much as the final concentration in the test. RKO subclones are seeded into 96 well flat bottom plates at a density of 4000 cells per well in a volume of 50 μl per well. 24 hours after seeding 50 μl each of the compound dilutions in DMEM are added into each well of the 96 well plate. Each compound dilution is tested as quadruplicates. Wells containing untreated control cells are filled with 50 μl DMEM containing 1% DMSO. The cells are then incubated with the substances for 72 hours at 37° C. in a humidified atmosphere containing 5% carbon dioxide. To determine the viability of the cells, 10 μl of an Alamar Blue solution (Biosource) are added and the fluorescence is measured at an extinction of 544 nm and an emission of 590 nm. For the calculation of the cell viability the emission value from untreated cells is set as 100% viability and the emission rates of treated cells are set in relation to the values of untreated cells. Viabilities are expressed as % values.
The corresponding IC50 values of the compounds for anti-proliferative/cytotoxic activity are determined from the concentration-effect curves.
Representative IC50 values for anti-proliferation/cytotoxicity determined in the aforementioned assay are described in the table A (1st column), in which the numbers of the compound correspond to the numbers of the examples.

[2] = tested on: RKO colon adenocarcinoma cells (RKOp27) arrested by expression of ectopic p27Kip1; assay: Alamar Blue cell viability assay on RKOp27 cells arrested by Ponasterone A-induced p27Kip1 (cell cycle specific mode of action); type: cell-based; conditions: Homo sapiens, RKOp27, 72 h, cells arrested by p27Kip1 induced with 10 μM Ponasterone A, 72 hours incubation, read-out: IC50 RKO p27 arrested
Description: To determine the cell cycle specific mode of action, subclones of RKO colon adenocarcinoma cells (RKOp27 or RKOp21 as described by Schmidt et al. in Oncogene 19, 2423-2429; 2000) are seeded into 96 well flat bottom plates at a density of 16000 cells per well in a volume of 50 μl per well in DMEM growth medium with 10% FCS containing 10 μM Ponasterone A. 24 hours after seeding 50 μl each of the compound dilutions in DMEM are added into each well of the 96 well plate. Each compound dilution is tested as quadruplicates. Wells containing untreated control cells are filled with 50 μl DMEM containing 1% DMSO. The cells are then incubated with the substances for 72 hours at 37° C. in a humidified atmosphere containing 5% carbon dioxide. To determine the viability of the cells, 10 μl of an Alamar Blue solution (Biosource) are added and the fluorescence is measured at an extinction of 544 nm and an emission of 590 nm. For the calculation of the cell viability the emission value from untreated cells is set as 100% viability and the emission rates of treated cells are set in relation to the values of untreated cells. Viabilities are expressed as % values. Viability is compared of proliferating cells grown in the absence of the inducer Ponasterone A, versus viability of cells arrested by the expression of ectopic p27Kip1 induced by Ponasterone A. The data of this experimental setting are summarized in table A (2nd column).

Row | IC50 [2] [µM] | Structure (SMILES) | IC50 [1] [µM]
1 | ≥ 100 | CCOC(=O)N1CCc2c(sc(NC(=O)/C=C/c3ccc(OC)cc3F)c2C#N)C1 [Example 70, 3-Cyano-2-[(E)-3-(2-fluoro-4-methoxy-phenyl)-allanoylamino]β4,7-dihydro-5H-thieno[2,3-c]pyridine-6-carboxylic acid ethyl ester] | ≤ 2
2 | ≥ 100 | CCOC(=O)N1CCc2c(sc(NC(=O)/C=C/c3csc4ccccc34)c2C#N)C1 [Example 71, 2-((E)-3-Benzo[b]thiophen-3-yl-allanoylamino)-3-cyano-[4,7-d]hydro-5H-thieno[2,3-c]pyridine-6-carboxylic acid ethyl ester] | ≤ 2
3 | ≥ 100 | CCOC(=O)N1CCc2c(sc(NC(=O)/C=C/c3ccc(Cl)s3)c2C#N)C1 [Example 72, 2-[(E)-3-(5-Chloro-thiophen-2-yl)-allanoylamino]-3-cyano-4,7-dihydro-5H-thieno[2,3-c]pyridine-6-carboxylic acid ethyl ester] | ≤ 2
4 | ≥ 100 | CCOC(=O)N1CCc2c(sc(NC(=O)/C=C/c3ccccc3-c3ccccc3)c2C#N)C1 [Example 73, 2-((E)-3-Biphenyl-2-yl-allanoylamino)-3-cyano-4,7-dihydro-5H-thieno[2,3-c]pyridine-6-carboxylic acid ethyl ester] | ≤ 2
5 | ≥ 100 | CCOC(=O)N1CCc2c(sc(NC(=O)/C=C/c3ccc(C)o3)c2C#N)C1 [Example 74, 3-Cyano-2-[(E)-3-(5-methyl-furan-2-yl)-allanoylamino]-4,7-dihydro-5H-thieno[2,3-c]pyridin-6-carboxylic acid ethyl ester] | ≤ 2
6 | ≥ 100 | CCOC(=O)N1CCc2c(sc(NC(=O)/C=C/c3sccc3C)c2C#N)C1 [Example 75, 3-Cyano-2-[(E)-3-(3-methyl-thiophen-2-yl)-allanoylamino]-4,7-dihydro-5H-thieno[2,3-c]pyridine-6-carboxylic acid ethyl ester] | ≤ 2
7 | ≥ 100 | CCOC(=O)N1CCc2c(sc(NC(=O)/C=C/c3ccc(C)s3)c2C#N)C1 [Example 76, 3-Cyano-2-[(E)-3-(5-methyl-thiophen-2-yl)-allanoylamino]-4,7-dihydro-5H-thieno[2,3-c]pyridine-6-carboxylic acid ethyl ester] | ≤ 2
8 | ≥ 50 | CCOC(=O)N1CCc2c(sc(NC(=O)/C=C/c3ccc(CC)o3)c2C#N)C1 [Example 77, 3-Cyano-2-[(E)-3-(5-ethyl-furan-2-yl)-allanoylamino]-4,7-dihydro-5H-thieno[2,3-c]pyridine-6-carboxylic acid ethyl ester] | ≤ 0.5
9 | ≥ 100 | CCOC(=O)N1CCc2c(sc(NC(=O)/C=C/c3ccc(Cl)o3)c2C#N)C1 [Example 78, 2-[(E)-3-(5-Chloro-furan-2-yl)-allanoylamino]-3-cyano-4,7-dihydro-5H-thieno[2,3-c]pyridine-6-carboxylic acid ethyl ester] | ≤ 2
10 | ≥ 100 | CCOC(=O)N1CCc2c(sc(NC(=O)/C=C/c3cc(F)ccc3C)c2C#N)C1 [Example 79, 3-Cyano-2-[(E)-3-(5-fluoro-2-methyl-phenyl)-allanoylamino]-4,7-dihydro-5H-thieno[2,3-c]pyridine-6-carboxylic acid ethyl ester] | ≤ 2
11 | ≥ 100 | CCOC(=O)N1CCc2c(sc(NC(=O)/C=C/c3cccc(F)c3C)c2C#N)C1 [Example 80, 3-Cyano-2-[(E)-3-(3-fluoro-2-methyl-phenyl)-allanoylamino]-4,7-dihydro-5H-thieno[2,3-c]pyridine-6-carboxylic acid ethyl ester] | ≤ 2
12 | ≥ 100 | CCOC(=O)N1CCc2c(sc(NC(=O)/C=C/c3ccccc3CC)c2C#N)C1 [Example 82, 3-Cyano-2-[(E)-3-(2-ethyl-phenyl)-allanoylamino]-4,7-dihydro-5H-thieno[2,3-c]pyridine-6-carboxylic acid ethyl ester] | ≤ 2
13 | ≥ 100 | CCOC(=O)N1CCc2c(sc(NC(=O)/C=C/c3ccccc3C#N)c2C#N)C1 [Example 83, 3-Cyano-2-[(E)-3-(2-cyano-phenyl)-allanoylamino]-4,7-dihydro-5H-thieno[2,3-c]pyridine-6-carboxylic acid ethyl ester] | ≤ 2
14 | ≥ 50 | CCOC(=O)N1CCc2c(sc(NC(=O)/C=C/c3cc4ccccc4o3)c2C#N)C1 [Example 84, 2-[(E)-3-Benzofuran-2-yl-allanoylamino]-3-cyano-4,7-dihydro-5H-thieno[2,3-c]pyridine-6-carboxylic acid ethyl ester] | ≤ 0.5
15 | ≥ 100 | CCOC(=O)N1CCc2c(sc(NC(=O)/C=C/c3ccc(-c4ccccc4)s3)c2C#N)C1 [Example 85, 3-Cyano-2-[(E)-3-(5-phenyl-thiophen-2-yl)-allanoylamino]-4,7-dihydro-5H-thieno[2,3-c]pyridine-6-carboxylic acid ethyl ester] | ≤ 2
16 | ≥ 100 | CCOC(=O)N1CCc2c(sc(NC(=O)/C=C/c3cccc(C)c3C)c2C#N)C1 [Example 86, 3-Cyano-2-[(E)-3-(2,3-dimethyl-phenyl)-allanoylamino]-4,7-dihydro-5H-thieno[2,3-c]pyridine-6-carboxylic acid ethyl ester] | ≤ 2
17 | ≥ 50 | CCOC(=O)N1CCc2c(sc(NC(=O)/C=C/c3ccccc3N3CCOCC3)c2C#N)C1 [Example 88, 3-Cyano-2-[(E)-3-(2-morpholin-4-yl-phenyl)-allanoylamino]-4,7-dihydro-5H-thieno[2,3-c]pyridine-6-carboxylic acid ethyl ester] | ≤ 0.5
18 | ≥ 100 | CCOC(=O)N1CCc2c(sc(NC(=O)/C=C/c3ccc(F)cc3C)c2C#N)C1 [Example 89, 3-Cyano-2-[(E)-3-(4-fluoro-2-methyl-phenyl)-allanoylamino]-4,7-dihydro-5H-thieno[2,3-c]pyridine-6-carboxylic acid ethyl ester] | ≤ 2
19 | ≥ 100 | CCOC(=O)N1CCc2c(sc(NC(=O)/C=C/c3nn(C)cc3Cl)c2C#N)C1 [Example 90, 2-[(E)-3-(4-Chloro-1-methyl-1H-pyrazol-3-yl)-allanoylamino]-3-cyano-4,7-dihydro-5H-thieno[2,3-c]pyridine-6-carboxylic acid ethyl ester] | ≤ 2
20 | ≥ 100 | CCOC(=O)N1CCc2c(sc(NC(=O)/C=C/c3ccc(-c4ccccc4)o3)c2C#N)C1 [Example 91, 3-Cyano-2-[(E)-3-(5-phenyl-furan-2-yl)-allanoylamino]-4,7-dihydro-5H-thieno[2,3-c]pyridine-6-carboxylic acid ethyl ester] | ≤ 2
21 | ≥ 100 | CCOC(=O)N1CCc2c(sc(NC(=O)/C=C/c3ccccc3O)c2C#N)C1 [Example 95, 3-Cyano-2-[(E)-3-(2-hydroxy-phenyl)-allanoylamino]-4,7-dihydro-5H-thieno[2,3-c]pyridine-6-carboxylic acid ethyl ester] | ≤ 2
22 | ≥ 100 | CCOC(=O)N1CCc2c(sc(NC(=O)/C=C/c3cccc(OC)c3OCC)c2C#N)C1 [Example 96, 3-Cyano-2-[(E)-3-(2-ethoxy-3-methoxy-phenyl)-allanoylamino]-4,7-dihydro-5H-thieno[2,3-c]pyridine-6-carboxylic acid ethyl ester] | ≤ 2

Row | Structure (SMILES) | IC50 [2] [µM] | IC50 [1] [µM]
23 | CCOC(=O)N1CCc2c(sc(NC(=O)/C=C/c3ccccc3OC(C)=O)c2C#N)C1 [Example 69, 2-[(E)-3-(2-Acetoxy-phenyl)-allanoylamino]-3-cyano-4,7-dihydro-5H-thieno[2,3-c]pyridine-6-carboxylic acid ethyl ester] | ≥ 50 | ≤ 0.5
